PubChem BioAssay AID248 (DTP/NCI, 2004)
“And” between values parts separate entries of the source, which are not always exact repeats. Equal entries are not always repeated. Toxic doses and inconclusive results are not listed. No stated cut-off is given here; in the data, active means T/C of 150% or more; inactive means T/C below 125%.

System: L1210 leukemia ip in BDF1 mice, survival T/C
Test: NCI In Vivo Anticancer Drug Screen. Data for tumor model L1210 Leukemia (intraperitoneal) in B6D2F1 (BDF1) mice
Conditions: endpoint: mean survival time, higher = longer survival
Procedure, shortened: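 Ratio derived from survival: compound-dosed mice over vehicle-dosed mice, all bearing a transplantable tumor.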

[1] = dose: 100.0 mg/kg/injection, schedule: Q04DX002 (ip), vehicle: saline with Tween-80
[2] = dose: 100.0 mg/kg/injection, schedule: Q04DX003 (ip), vehicle: saline
[3] = dose: 200.0 mg/kg/injection, schedule: Q04DX002 (ip), vehicle: saline with Tween-80
[4] = dose: 200.0 mg/kg/injection, schedule: Q04DX003 (ip), vehicle: saline
[5] = dose: 400.0 mg/kg/injection, schedule: Q04DX002 (ip), vehicle: saline with Tween-80
[6] = dose: 400.0 mg/kg/injection, schedule: Q04DX003 (ip), vehicle: saline
[7] = dose: 100.0 mg/kg/injection, schedule: Q01DX001 (ip), vehicle: saline
[8] = dose: 200.0 mg/kg/injection, schedule: Q01DX001 (ip), vehicle: saline
[9] = dose: 400.0 mg/kg/injection, schedule: Q01DX001 (ip), vehicle: saline
[10] = dose: 100.0 mg/kg/injection, schedule: Q04DX002 (ip), vehicle: Klucel (hydroxypropylcellulose) (HPC)
[11] = dose: 200.0 mg/kg/injection, schedule: Q04DX002 (ip), vehicle: Klucel (hydroxypropylcellulose) (HPC)
[12] = dose: 400.0 mg/kg/injection, schedule: Q04DX002 (ip), vehicle: Klucel (hydroxypropylcellulose) (HPC)
[13] = dose: 100.0 mg/kg/injection, schedule: Q04DX003 (ip), vehicle: Klucel (hydroxypropylcellulose) (HPC)
[14] = dose: 200.0 mg/kg/injection, schedule: Q04DX003 (ip), vehicle: Klucel (hydroxypropylcellulose) (HPC)
[15] = dose: 400.0 mg/kg/injection, schedule: Q04DX003 (ip), vehicle: Klucel (hydroxypropylcellulose) (HPC)
[16] = dose: 50.0 mg/kg/injection, schedule: Q01DX009 (ip), vehicle: Klucel (hydroxypropylcellulose) (HPC)
[17] = dose: 100.0 mg/kg/injection, schedule: Q01DX009 (ip), vehicle: Klucel (hydroxypropylcellulose) (HPC)

Measured: T/C

O=c1[nH]cc(/C=N/O)c(=O)[nH]1
inactive: dose: 100.0 mg/kg/injection, schedule: Q01DX001 (ip), vehicle: carboxymethylcellulose (CMC) 106 % of control | dose: 200.0 mg/kg/injection, schedule: Q01DX001 (ip), vehicle: carboxymethylcellulose (CMC) 106 % of control | dose: 400.0 mg/kg/injection, schedule: Q01DX001 (ip), vehicle: carboxymethylcellulose (CMC) 101 % of control

CCCCCCCCCCCCCCCCNS(=O)(=O)c1ccc(S(=O)(=O)F)cc1
inactive: dose: 100.0 mg/kg/injection, schedule: Q04DX003 (ip), vehicle: saline with Tween-80 94 % of control | dose: 200.0 mg/kg/injection, schedule: Q04DX003 (ip), vehicle: saline with Tween-80 94 % of control | dose: 400.0 mg/kg/injection, schedule: Q04DX003 (ip), vehicle: saline with Tween-80 89 % of control

O=C1/C(=C\c2ccccc2)N2CCC1CC2
inactive: [1] 87 % of control | [2] 103 % of control | [3] 91 % of control | [4] 108 % of control | [5] 87 % of control | [6] 103 % of control

Cn1ccccc1=O
inactive: dose: 100.0 mg/kg/injection, schedule: Q04DX002 (ip), vehicle: saline 104 % of control | dose: 200.0 mg/kg/injection, schedule: Q04DX002 (ip), vehicle: saline 98 % of control | dose: 400.0 mg/kg/injection, schedule: Q04DX002 (ip), vehicle: saline 104 % of control

CCCN(CCC)C(=O)CCN1CC1
inactive: dose: 5.0 mg/kg/injection, schedule: Q01DX001 (ip), vehicle: carboxymethylcellulose (CMC) 97 % of control | dose: 10.0 mg/kg/injection, schedule: Q01DX001 (ip), vehicle: carboxymethylcellulose (CMC) 100 % of control | dose: 20.0 mg/kg/injection, schedule: Q01DX001 (ip), vehicle: carboxymethylcellulose (CMC) 88 % of control | dose: 40.0 mg/kg/injection, schedule: Q01DX001 (ip), vehicle: carboxymethylcellulose (CMC) 103 % of control

COC1C(COC(C)=O)OC(n2cnc3c(=O)[nH]cnc32)C1OC(C)=O (centres undefined)
inactive: [7] 112 % of control | [8] 108 % of control | [9] 103 % of control

O=C(/C=C/c1ccco1)c1ccc(O)cc1
inactive: [10] 101 % of control | [11] 90 % of control | [12] 93 % of control

Cc1cc(OCC#CCN(C)c2ccccc2)ccc1Cl
inactive: [10] 89 % of control | [11] 99 % of control | [12] 96 % of control

CCOC(=O)/C(C#N)=C/NN
inactive: dose: 6.25 mg/kg/injection, schedule: Q04DX003 (ip), vehicle: saline 100 % of control | dose: 12.5 mg/kg/injection, schedule: Q04DX003 (ip), vehicle: saline 96 % of control | dose: 25.0 mg/kg/injection, schedule: Q04DX003 (ip), vehicle: saline 96 % of control

C1CC2OC2CC1C1CO1 (centres undefined)
inactive: [2] 105 % of control | [4] 109 % of control | [6] 102 % of control

CN1CCC(OC(c2ccccc2)c2ccccc2)CC1
inactive: dose: 20.0 mg/kg/injection, schedule: Q01DX009 (ip), vehicle: saline 107 % of control | dose: 20.0 mg/kg/injection, schedule: Q04DX003 (ip), vehicle: saline 108 % of control | dose: 40.0 mg/kg/injection, schedule: Q01DX009 (ip), vehicle: saline 113 % of control | dose: 40.0 mg/kg/injection, schedule: Q04DX003 (ip), vehicle: saline 105 % of control | dose: 80.0 mg/kg/injection, schedule: Q04DX003 (ip), vehicle: saline 95 % of control

CCCCCCCCCC/C=C/c1c(C)[nH]c2ccccc2c1=O
inactive: dose: 100.0 mg/kg/injection, schedule: Q01DX009 (ip), vehicle: alcohol 98 % of control | dose: 100.0 mg/kg/injection, schedule: Q04DX003 (ip), vehicle: alcohol 93 % of control | dose: 200.0 mg/kg/injection, schedule: Q04DX003 (ip), vehicle: alcohol 100 % of control | dose: 400.0 mg/kg/injection, schedule: Q04DX003 (ip), vehicle: alcohol 88 % of control

C#CC1=CCCC1
inactive: [7] 95 % of control | [8] 100 % of control | [9] 95 % of control

O=c1cc(/C=N/O)c2cccc3c2n1CCC3
inactive: dose: 100.0 mg/kg/injection, schedule: Q01DX001 (ip), vehicle: saline with Tween-80 100 % of control | dose: 200.0 mg/kg/injection, schedule: Q01DX001 (ip), vehicle: saline with Tween-80 91 % of control | dose: 400.0 mg/kg/injection, schedule: Q01DX001 (ip), vehicle: saline with Tween-80 94 % of control

Clc1ccc2c(c1)Cc1cc(Cl)cc(Cl)c1-2
inactive: [13] 98 % of control | [14] 100 % of control | [15] 96 % of control

O=C(O)c1cccc(F)c1C(=O)c1ccc2ccccc2c1
inactive: dose: 75.0 mg/kg/injection, schedule: Q01DX001 (ip), vehicle: carboxymethylcellulose (CMC) 96 % of control | [13] 97 % of control | dose: 150.0 mg/kg/injection, schedule: Q01DX001 (ip), vehicle: carboxymethylcellulose (CMC) 95 % of control | [14] 105 % of control | dose: 300.0 mg/kg/injection, schedule: Q01DX001 (ip), vehicle: carboxymethylcellulose (CMC) 93 % of control

CC(C)=CC(=O)CNC(N)=S
inactive: [13] 100 % of control and 98 % of control | [14] 101 % of control | [15] 93 % of control

CC(=O)O[C@H]1CC[C@H]2[C@@H]3CC[C@H]4CC=C(C#N)C[C@]4(C)[C@H]3CC[C@]12C
inactive: dose: 50.0 mg/kg/injection, schedule: Q01DX001 (sc), vehicle: steriod suspending solution 107 % of control | dose: 100.0 mg/kg/injection, schedule: Q01DX001 (sc), vehicle: steriod suspending solution 104 % of control | dose: 200.0 mg/kg/injection, schedule: Q01DX001 (sc), vehicle: steriod suspending solution 102 % of control | dose: 400.0 mg/kg/injection, schedule: Q01DX001 (sc), vehicle: steriod suspending solution 101 % of control

CCOC(=O)C(C(=O)OCC)C(=O)c1cc(-c2ccc(Cl)c(Cl)c2)nc2c(Cl)cc(Cl)cc12
inactive: [16] 98 % of control | [17] 104 % of control | [13] 101 % of control | [14] 109 % of control

O=[N+]([O-])c1ccc(NCc2ccccc2)nc1
inactive: [1] 91 % of control | dose: 111.0 mg/kg/injection, schedule: Q01DX Z (ip), vehicle: carboxymethylcellulose (CMC) 111 % of control | dose: 166.7 mg/kg/injection, schedule: Q01DX Z (ip), vehicle: carboxymethylcellulose (CMC) 98 % of control | [3] 97 % of control | dose: 250.0 mg/kg/injection, schedule: Q01DX Z (ip), vehicle: carboxymethylcellulose (CMC) 101 % of control | dose: 375.0 mg/kg/injection, schedule: Q01DX Z (ip), vehicle: carboxymethylcellulose (CMC) 100 % of control | [5] 103 % of control

CC(=O)/C=C1\C(=O)Nc2ccccc21
inactive: [10] 104 % of control | [11] 89 % of control | [12] 91 % of control

CC(Oc1cc(Cl)c(Cl)cc1Cl)C(=O)OCCCc1ccccn1 (centres undefined)
inactive: [16] 106 % of control | [17] 100 % of control and 111 % of control | [10] 103 % of control | dose: 200.0 mg/kg/injection, schedule: Q01DX009 (ip), vehicle: Klucel (hydroxypropylcellulose) (HPC) 114 % of control | [11] 107 % of control | [12] 90 % of control
